Three compounds from publication PMC4685510, “A Cell Biologist’s Field Guide to Aurora Kinase Inhibitors” (Frontiers in Oncology, 2015) can be followed below.

Holding throughout (assay): biochemical
Common to all, as to format: biochemical

Assay [1] addresses 363 human kinases (including Aurora A/B/C) (Homo sapiens, UniProt Q86Z02). Particulars: HIPK1; for remaining activity at 0.5 µM / remaining activity at 0.1 µM: read-out: % Enzyme Activity (relative to DMSO controls); for remaining activity at 0.1 µM: 100 nM.
Text: (§1) However, the Aurora A/B selectivity ratios derived from our in vitro and in vivo data can be compared to prioritize inhibitors.
The target of assay [2] is 363 human kinases (including Aurora A/B/C) (Homo sapiens, UniProt Q7KZI7). To be noted: MARK2/PAR-1Ba; for remaining activity at 0.5 µM / remaining activity at 0.1 µM: read-out: % Enzyme Activity (relative to DMSO controls); for remaining activity at 0.1 µM: 100 nM.
Text: as §1
The target of assay [3] is T1, 363 human kinases (including Aurora A/B/C) (Homo sapiens, UniProt Q86YV6).
T1 sequence (Q86YV6 1-388): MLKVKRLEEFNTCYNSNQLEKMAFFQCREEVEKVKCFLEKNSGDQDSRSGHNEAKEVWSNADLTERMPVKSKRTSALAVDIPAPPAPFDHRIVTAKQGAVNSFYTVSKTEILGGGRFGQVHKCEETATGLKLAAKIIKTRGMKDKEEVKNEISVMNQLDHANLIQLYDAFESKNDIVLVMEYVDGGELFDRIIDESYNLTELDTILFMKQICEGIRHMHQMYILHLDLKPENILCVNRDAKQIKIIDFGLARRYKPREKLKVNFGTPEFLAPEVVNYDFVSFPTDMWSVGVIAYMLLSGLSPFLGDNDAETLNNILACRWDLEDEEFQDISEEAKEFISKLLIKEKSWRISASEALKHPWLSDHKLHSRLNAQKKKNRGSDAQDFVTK
To be noted: MYLK4; for remaining activity at 0.5 µM / remaining activity at 0.1 µM: read-out: % Enzyme Activity (relative to DMSO controls); for remaining activity at 0.1 µM: 100 nM.
Text: as §1

In assay [4] the target is T2, 363 human kinases (including Aurora A/B/C) (Homo sapiens, UniProt Q99759).
T2 sequence (Q99759 1-626): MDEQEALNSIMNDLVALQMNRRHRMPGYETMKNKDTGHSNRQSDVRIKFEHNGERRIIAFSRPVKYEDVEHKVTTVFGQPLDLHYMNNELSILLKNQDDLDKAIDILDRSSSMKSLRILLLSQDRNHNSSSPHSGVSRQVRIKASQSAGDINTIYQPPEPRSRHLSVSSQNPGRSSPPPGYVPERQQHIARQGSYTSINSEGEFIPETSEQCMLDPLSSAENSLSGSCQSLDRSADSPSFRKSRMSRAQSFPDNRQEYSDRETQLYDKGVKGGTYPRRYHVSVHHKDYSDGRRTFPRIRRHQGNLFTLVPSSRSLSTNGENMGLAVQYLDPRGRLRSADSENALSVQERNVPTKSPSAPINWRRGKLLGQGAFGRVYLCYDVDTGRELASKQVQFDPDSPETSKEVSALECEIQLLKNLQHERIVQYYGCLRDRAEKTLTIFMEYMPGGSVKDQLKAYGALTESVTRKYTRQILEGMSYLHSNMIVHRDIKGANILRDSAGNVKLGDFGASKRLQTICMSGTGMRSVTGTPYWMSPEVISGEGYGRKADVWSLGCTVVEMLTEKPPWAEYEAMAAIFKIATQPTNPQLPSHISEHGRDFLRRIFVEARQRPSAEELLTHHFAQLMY
To be noted: MEKK3; for remaining activity at 0.5 µM / remaining activity at 0.1 µM: read-out: % Enzyme Activity (relative to DMSO controls); for remaining activity at 0.1 µM: 100 nM.
Text: as §1

In assay [5] the target is T3, 363 human kinases (including Aurora A/B/C) (Homo sapiens, UniProt P29320).
T3 sequence (P29320 21-983): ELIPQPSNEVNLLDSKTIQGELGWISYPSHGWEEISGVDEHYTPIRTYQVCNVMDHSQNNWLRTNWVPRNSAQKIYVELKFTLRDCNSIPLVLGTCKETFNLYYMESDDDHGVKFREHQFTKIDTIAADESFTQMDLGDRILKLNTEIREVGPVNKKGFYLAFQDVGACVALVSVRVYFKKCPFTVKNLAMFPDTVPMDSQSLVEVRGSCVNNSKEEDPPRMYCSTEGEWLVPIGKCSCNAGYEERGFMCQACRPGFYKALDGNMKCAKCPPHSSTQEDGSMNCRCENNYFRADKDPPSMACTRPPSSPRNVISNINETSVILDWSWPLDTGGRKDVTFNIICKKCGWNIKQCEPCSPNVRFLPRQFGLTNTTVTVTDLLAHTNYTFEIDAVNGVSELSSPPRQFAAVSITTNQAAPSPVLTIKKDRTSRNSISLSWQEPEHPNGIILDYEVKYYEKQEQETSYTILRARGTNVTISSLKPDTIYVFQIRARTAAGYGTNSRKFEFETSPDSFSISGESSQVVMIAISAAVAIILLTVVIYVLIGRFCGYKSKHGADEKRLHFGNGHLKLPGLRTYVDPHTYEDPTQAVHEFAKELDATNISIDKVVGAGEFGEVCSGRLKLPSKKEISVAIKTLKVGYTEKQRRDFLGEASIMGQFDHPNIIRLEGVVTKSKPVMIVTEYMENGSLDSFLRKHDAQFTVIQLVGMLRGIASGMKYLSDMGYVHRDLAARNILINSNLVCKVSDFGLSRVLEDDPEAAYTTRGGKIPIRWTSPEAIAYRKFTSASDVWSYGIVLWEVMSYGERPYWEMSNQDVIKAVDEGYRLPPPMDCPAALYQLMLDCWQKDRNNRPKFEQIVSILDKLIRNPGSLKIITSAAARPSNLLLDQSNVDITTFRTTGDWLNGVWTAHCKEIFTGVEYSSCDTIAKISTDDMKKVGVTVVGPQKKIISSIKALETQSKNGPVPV
To be noted: EPHA3, [ATP] 50 µM; for remaining activity at 0.5 µM / remaining activity at 0.1 µM: read-out: % Enzyme Activity (relative to DMSO controls); for remaining activity at 0.1 µM: 100 nM.
Text: as §1

For assay [6], the target named is 363 human kinases (including Aurora A/B/C) (Homo sapiens, UniProt O95819). Particulars: HGK/MAP4K4; for remaining activity at 0.5 µM / remaining activity at 0.1 µM: read-out: % Enzyme Activity (relative to DMSO controls); for remaining activity at 0.1 µM: 100 nM.
Chain of 363 human kinases (including Aurora A/B/C) (Homo sapiens, UniProt O95819) (O95819 whole entry): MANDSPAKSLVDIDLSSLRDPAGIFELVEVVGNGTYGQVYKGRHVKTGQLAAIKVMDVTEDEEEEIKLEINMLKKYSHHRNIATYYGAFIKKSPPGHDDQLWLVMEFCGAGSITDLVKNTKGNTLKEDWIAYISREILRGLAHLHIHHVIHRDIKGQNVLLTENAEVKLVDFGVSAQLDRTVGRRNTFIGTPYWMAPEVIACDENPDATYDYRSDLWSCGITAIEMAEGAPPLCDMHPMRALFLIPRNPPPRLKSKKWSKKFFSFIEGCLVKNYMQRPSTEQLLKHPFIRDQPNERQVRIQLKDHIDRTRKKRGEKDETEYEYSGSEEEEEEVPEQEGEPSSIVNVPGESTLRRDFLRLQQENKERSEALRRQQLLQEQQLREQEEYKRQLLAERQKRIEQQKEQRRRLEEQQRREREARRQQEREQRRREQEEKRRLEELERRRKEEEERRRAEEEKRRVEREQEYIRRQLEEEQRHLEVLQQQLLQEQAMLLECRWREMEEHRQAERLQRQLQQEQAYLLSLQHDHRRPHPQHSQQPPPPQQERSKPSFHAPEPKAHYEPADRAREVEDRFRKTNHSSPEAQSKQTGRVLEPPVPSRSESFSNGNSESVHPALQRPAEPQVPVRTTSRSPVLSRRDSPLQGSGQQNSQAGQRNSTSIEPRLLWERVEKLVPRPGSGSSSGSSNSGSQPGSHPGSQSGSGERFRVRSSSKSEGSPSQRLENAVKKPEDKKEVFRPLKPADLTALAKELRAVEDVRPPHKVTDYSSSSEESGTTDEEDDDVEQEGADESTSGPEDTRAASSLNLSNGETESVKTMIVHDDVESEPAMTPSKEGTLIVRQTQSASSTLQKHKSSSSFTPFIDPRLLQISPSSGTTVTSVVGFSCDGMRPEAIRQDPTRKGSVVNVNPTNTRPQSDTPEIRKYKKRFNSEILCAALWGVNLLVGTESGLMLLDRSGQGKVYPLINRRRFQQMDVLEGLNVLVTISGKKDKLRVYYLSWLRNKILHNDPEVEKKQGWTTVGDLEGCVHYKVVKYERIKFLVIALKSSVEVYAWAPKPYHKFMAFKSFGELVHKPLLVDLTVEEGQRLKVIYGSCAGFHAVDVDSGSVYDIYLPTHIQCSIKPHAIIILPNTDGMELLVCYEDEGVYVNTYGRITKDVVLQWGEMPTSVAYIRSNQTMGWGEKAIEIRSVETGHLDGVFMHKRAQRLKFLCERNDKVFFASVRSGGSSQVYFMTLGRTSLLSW
Text: as §1

Chain of 363 human kinases (including Aurora A/B/C) (Homo sapiens, UniProt Q7KZI7) (Q7KZI7 whole entry): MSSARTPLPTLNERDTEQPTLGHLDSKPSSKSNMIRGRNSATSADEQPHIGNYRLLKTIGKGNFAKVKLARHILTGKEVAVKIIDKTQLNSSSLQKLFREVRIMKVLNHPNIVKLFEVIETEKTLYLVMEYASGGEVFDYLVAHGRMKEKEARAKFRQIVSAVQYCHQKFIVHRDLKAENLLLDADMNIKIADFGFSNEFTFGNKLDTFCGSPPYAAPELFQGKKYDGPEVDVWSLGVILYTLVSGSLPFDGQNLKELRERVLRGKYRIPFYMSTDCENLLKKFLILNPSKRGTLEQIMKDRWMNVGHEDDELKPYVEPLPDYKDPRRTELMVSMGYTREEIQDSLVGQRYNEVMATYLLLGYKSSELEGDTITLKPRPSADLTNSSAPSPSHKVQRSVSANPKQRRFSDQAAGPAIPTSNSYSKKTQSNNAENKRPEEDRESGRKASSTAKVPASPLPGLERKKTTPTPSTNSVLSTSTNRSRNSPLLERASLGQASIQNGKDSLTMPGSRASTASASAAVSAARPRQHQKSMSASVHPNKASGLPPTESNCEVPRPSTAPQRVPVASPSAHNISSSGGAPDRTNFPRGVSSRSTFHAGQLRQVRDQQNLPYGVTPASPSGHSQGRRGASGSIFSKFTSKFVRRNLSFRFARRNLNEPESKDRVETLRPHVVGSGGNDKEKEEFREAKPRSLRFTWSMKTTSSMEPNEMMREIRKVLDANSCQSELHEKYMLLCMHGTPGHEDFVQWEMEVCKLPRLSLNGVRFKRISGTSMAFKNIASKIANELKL
Chain of 363 human kinases (including Aurora A/B/C) (Homo sapiens, UniProt Q86Z02) (Q86Z02 whole entry): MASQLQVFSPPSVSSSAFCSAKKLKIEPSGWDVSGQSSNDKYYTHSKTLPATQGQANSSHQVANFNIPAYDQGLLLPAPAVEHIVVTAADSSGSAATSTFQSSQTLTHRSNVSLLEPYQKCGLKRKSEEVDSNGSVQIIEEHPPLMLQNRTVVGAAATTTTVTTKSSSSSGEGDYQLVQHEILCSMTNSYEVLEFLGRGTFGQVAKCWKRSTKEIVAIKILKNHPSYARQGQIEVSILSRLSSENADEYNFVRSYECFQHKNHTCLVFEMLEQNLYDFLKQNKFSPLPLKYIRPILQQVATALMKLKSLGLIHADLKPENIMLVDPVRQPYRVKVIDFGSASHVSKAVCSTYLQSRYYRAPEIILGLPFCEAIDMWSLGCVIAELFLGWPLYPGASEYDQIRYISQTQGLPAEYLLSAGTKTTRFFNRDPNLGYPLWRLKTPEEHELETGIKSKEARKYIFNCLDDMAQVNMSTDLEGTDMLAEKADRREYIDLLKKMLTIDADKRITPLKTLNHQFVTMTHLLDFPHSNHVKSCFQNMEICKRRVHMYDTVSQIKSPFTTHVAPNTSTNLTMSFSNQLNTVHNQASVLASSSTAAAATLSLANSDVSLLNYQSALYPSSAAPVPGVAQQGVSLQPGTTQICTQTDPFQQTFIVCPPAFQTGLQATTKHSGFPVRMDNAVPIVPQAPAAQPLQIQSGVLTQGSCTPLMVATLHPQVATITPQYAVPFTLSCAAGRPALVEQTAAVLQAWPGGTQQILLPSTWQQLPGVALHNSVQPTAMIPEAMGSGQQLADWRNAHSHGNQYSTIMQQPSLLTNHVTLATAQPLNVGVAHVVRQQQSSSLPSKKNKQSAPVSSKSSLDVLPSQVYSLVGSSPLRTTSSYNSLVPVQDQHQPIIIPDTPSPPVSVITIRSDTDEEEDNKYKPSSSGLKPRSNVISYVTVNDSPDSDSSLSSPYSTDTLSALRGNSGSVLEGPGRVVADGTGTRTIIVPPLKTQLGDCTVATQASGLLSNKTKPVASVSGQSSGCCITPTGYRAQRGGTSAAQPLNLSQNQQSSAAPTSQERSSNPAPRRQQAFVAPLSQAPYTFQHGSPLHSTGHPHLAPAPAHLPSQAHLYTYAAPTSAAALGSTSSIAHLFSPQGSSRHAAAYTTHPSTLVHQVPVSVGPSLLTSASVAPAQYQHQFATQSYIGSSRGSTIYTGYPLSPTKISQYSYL

On to `O=C(c1cccc(Cl)c1F)N1CCN(Cc2cccc(Nc3nccs3)n2)CC1` [MK-8745], for which the “% Enzyme Activity (relative to DMSO controls)” value amounted to 90.76% in assay [1] (500 nM); 103.22% in assay [2] (500 nM); 92.44% in assay [3] (500 nM); 111.88% in assay [4] (500 nM); 84.89% in assay [5] (500 nM); 88.10% in assay [6] (500 nM). The remaining activity at 0.5 µM in assay [1] (500 nM) came out at 90.8%; in assay [2] (500 nM), 104%; in assay [3] (500 nM) it was 93%; in assay [4] (500 nM), 114%; in assay [5] (500 nM) it was 85.5%; in assay [6] (500 nM), 89.1%.
In the case of `CCn1cc(-c2ccnc3[nH]c(-c4cccc(CN(C)C)c4)cc23)c(-c2ccc(NC(=O)N(C)C)cc2)n1` [GSK1070916], the remaining activity at 0.1 µM in assay [1] is 99.2%; in assay [2] it was 96.9%; in assay [3], 94.3%; in assay [4], 97.2%; in assay [5], 93.1%; in assay [6], 87.5%.
With `O=C(O)[C@]1(Cc2cccc(Nc3nccs3)n2)CC[C@@H](Oc2cccc(Cl)c2F)CC1` [MK-5108], the remaining activity at 0.1 µM in assay [1] was found to be 96.7%; in assay [2], 96.8%; in assay [3], 93%; in assay [4], 96.3%; in assay [5] it was 67.4%; in assay [6], 95.5%. Moreover, the remaining activity at 0.5 µM amounted to 67.8% in assay [1] (500 nM); 97.8% in assay [2] (500 nM); 90.4% in assay [3] (500 nM); 117% in assay [4] (500 nM); 31.4% in assay [5] (500 nM); 72.9% in assay [6] (500 nM).
